Entries after “also recorded” stand apart in the source; their conditions may differ. Marks after values point to notes of the source that are not given here.
Key:
[1] = test system: CYP1A2; details: in vitro; read-out: IC50, CYP1A2 inhibition; cited from earlier work
[2] = test system: CYP3A4 and CYP3A5; details: in vitro; UGT 1A1, 1A3, 1A4 glucuronidation also contributes; cited from earlier work
[3] = test system: CYP2C9; details: in vitro; read-out: IC50, CYP2C9 inhibition; cited from earlier work
[4] = Phase 1 crossover study: AZD5718 plasma pharmacokinetics; type: in vivo, human; details: for AUC(0-inf) / AUC(0-t) / half-life / Tmax / Cmax: human, plasma, oral; for AUC(0-inf): AZD5718 AUC0-inf; for AUC(0-t): AZD5718 AUC0-last; for half-life: AZD5718 t1/2 lambda z; for Tmax: AZD5718 tmax, median (range); for Cmax: AZD5718 Cmax
Protocol: The primary objective was to evaluate the pharmacokinetics of oral rosuvastatin when administered alone and in combination with oral AZD5718. […] Each participant received 5 single-dose oral study treatments (A-E), with a minimum washout period of 7 days between each treatment period. Participants were randomly assigned to treatments in the order A, B, C, D, E or B, A, C, D, E. Treatments were: […] […] Participants fasted for at least 10 hours before treatment and for at least 4 hours after treatment. Participants receiving treatment E consumed a high-fat breakfast 30 minutes before treatment. Water was permitted as desired except within 1 hour of administration. […] Doses were taken with 240 mL of water. […] At a minimum, each analytical run included a calibration curve, a matrix blank, a control zero sample (matrix blank containing internal standard), a reagent blank, and duplicate quality control samples at 3 concentrations within the calibration range. […] Both assessments were well within the acceptance criteria. […] The pharmacokinetic analysis set for rosuvastatin included all participants who received both rosuvastatin treatments. […] Statistical analyses were performed by […] using SAS version 9.4. Rosuvastatin pharmacokinetics were analyzed using a mixed-effects model, with log-transformed AUC, AUC0-last, and Cmax as the response variables; treatment sequence, period, and treatment as fixed effects; and participant nested within treatment sequence as a random effect. […] LS mean differences and 90%CIs for the effect of formulation or food for log-transformed variables were back transformed to geometric mean ratios and presented as percentages with 90% CIs.

[5] = test system: CYP3A4; details: in vitro; read-out: IC50, CYP3A4 inhibition; cited from earlier work
[6] = 200 mg suspension, fasted, n = 10
[7] = 200 mg tablet plus rosuvastatin 10 mg, fasted, n = 12
[8] = 200 mg, arithmetic mean (SD), 200 mg suspension, fasted, n = 10
[9] = 200 mg, arithmetic mean (SD), 200 mg tablet, fasted, n = 10
[10] = 200 mg, arithmetic mean (SD), 200 mg tablet, fed, n = 12
[11] = 200 mg, geometric mean (%CV), 200 mg suspension, fasted, n = 10
[12] = 200 mg, geometric mean (%CV), 200 mg tablet, fasted, n = 10
[13] = 200 mg, geometric mean (%CV), 200 mg tablet, fed, n = 12
[14] = arithmetic mean (SD), 200 mg tablet plus rosuvastatin 10 mg, fasted, n = 12
[15] = geometric mean (%CV), 200 mg tablet plus rosuvastatin 10 mg, fasted, n = 12
[16] = male, 200 mg, geometric mean (%CV), 200 mg suspension, fasted, n = 12
[17] = male, 200 mg, geometric mean (%CV), 200 mg tablet, fasted, n = 12
[18] = male, 200 mg, geometric mean (%CV), 200 mg tablet, fed, n = 12
[19] = male, geometric mean (%CV), 200 mg tablet plus rosuvastatin 10 mg, fasted, n = 12
[20] = tablets after high-fat breakfast relative to fasting

SMILES: Cc1cc(-c2ccc(C(=O)[C@@H]3CCCC[C@H]3C(=O)Nc3cnn4c3C(=O)NCC4)cc2)n[nH]1 [AZD5718]
- IC50 [1]: > 20 µM
- enzymes involved in metabolism [2]: cytochrome P450 (CYP) 3A4 and CYP3A5 are involved in the metabolism
- IC50 [3]: > 20 µM
- AZD5718 CL/F, arithmetic mean (SD) [4, 6]: 93.55 (20.40) ^a L/h
- AZD5718 CL/F, geometric mean (%CV) [4, 6]: 91.5 (22.2) ^a L/h
- AZD5718 CL/F, arithmetic mean (SD) [4, 7]: 127.6 (28.12) L/h
- AZD5718 CL/F, geometric mean (%CV) [4, 7]: 124.6 (22.6) L/h
- AZD5718 Cmax, ratio of geometric LS means ([4]; 200 mg tablet vs oral suspension, fasted, 90% CI 36%-57%): 45%
- AZD5718 AUC0-inf (relative bioavailability), geometric LS mean ratio ([4]; 200 mg tablet vs oral suspension, fasted, 90% CI 64%-80%): 72%
- AZD5718 CL/F, arithmetic mean (SD) ([4]; 200 mg tablet, fasted, n = 10): 128.1 (25.63) ^a L/h
- AZD5718 CL/F, geometric mean (%CV) ([4]; 200 mg tablet, fasted, n = 10): 126.0 (20.1) ^a L/h
- AZD5718 AUC0-inf (relative bioavailability), geometric LS mean ratio ([4]; 200 mg tablet, fed (high-fat breakfast) vs fasted, 90% CI 87%-106%): 96%
- AZD5718 Cmax, geometric LS mean ratio ([4]; 200 mg tablet, fed vs fasted, 90% CI 63%-95%): 77%
- AZD5718 CL/F, arithmetic mean (SD) ([4]; 200 mg tablet, fed, n = 12): 136.9 (25.53) L/h
- AZD5718 CL/F, geometric mean (%CV) ([4]; 200 mg tablet, fed, n = 12): 134.4 (20.4) L/h
- Effect of rosuvastatin coadministration on AZD5718 pharmacokinetics ([4]; AZD5718 200 mg tablet plus rosuvastatin 10 mg vs tablet alone): unaffected; also recorded: not affected
- Between-participant variability (CV) of AUC0-inf and AUC0-last ([4]; AZD5718 tablets): < 25%
- AUC(0-inf) [4, 8]: 5 µM·h
- AUC(0-inf) [4, 9]: 3.62 µM·h
- AUC(0-inf) [4, 10]: 3.4 µM·h
- AUC(0-inf) [4, 11]: 4.89 µM·h
- AUC(0-inf) [4, 12]: 3.56 µM·h
- AUC(0-inf) [4, 13]: 3.33 µM·h
- AUC(0-t) ([4]; 200 mg, arithmetic mean (SD), 200 mg suspension, fasted, n = 12): 4.75 µM·h
- AUC(0-t) ([4]; 200 mg, arithmetic mean (SD), 200 mg tablet, fasted, n = 12): 3.49 µM·h
- AUC(0-t) [4, 10]: 3.27 µM·h
- half-life [4, 8]: 13.6 h
- half-life [4, 9]: 14 h
- half-life [4, 10]: 13.7 h
- half-life [4, 11]: 13.2 h
- half-life [4, 12]: 13.2 h
- half-life [4, 13]: 13.5 h
- Tmax ([4]; 200 mg, 200 mg suspension, fasted, n = 12): 1 h
- Tmax ([4]; 200 mg, 200 mg tablet, fed, n = 12): 4 h
- AUC(0-inf) [4, 14]: 3.67 µM·h
- AUC(0-inf) [4, 15]: 3.59 µM·h
- AUC(0-t) [4, 14]: 3.55 µM·h
- half-life [4, 14]: 15 h
- half-life [4, 15]: 13.9 h
- Tmax [4, 7]: 2.01 h
- Decrease in AZD5718 Cmax ([4]; immediate-release tablets relative to oral suspension): about 55%
- AUC(0-t) [4, 16]: 4.65 µM·h
- AUC(0-t) [4, 17]: 3.43 µM·h
- AUC(0-t) [4, 18]: 3.21 µM·h
- Cmax ([4]; male, 200 mg, arithmetic mean (SD), 200 mg suspension, fasted, n = 12): 1250 nM
- Cmax ([4]; male, 200 mg, arithmetic mean (SD), 200 mg tablet, fasted, n = 12): 565 nM
- Cmax ([4]; male, 200 mg, arithmetic mean (SD), 200 mg tablet, fed, n = 12): 427 nM
- Cmax [4, 16]: 1170 nM
- Cmax [4, 17]: 530 nM
- Cmax [4, 18]: 409 nM
- AUC(0-t) [4, 19]: 3.46 µM·h
- Cmax ([4]; male, arithmetic mean (SD), 200 mg tablet plus rosuvastatin 10 mg, fasted, n = 12): 567 nM
- Cmax [4, 19]: 545 nM
- Decrease in AZD5718 Cmax [4, 20]: about 23%
- Delay in AZD5718 tmax [4, 20]: about 1 hour
- IC50 [5]: > 20 µM
